In PMC9916969 (International Journal of Molecular Sciences, 2023):

Key:
[1] = target: β-amyloid (1–42) (Aβ42) (Homo sapiens, UniProt P05067); assay: Inhibition of Aβ42 self-aggregation (thioflavin T); assay type: biochemical; details: Aβ42 50 µM; compound 100 µM; 24 h, 37 °C; thioflavin T; read-out: Inhibition of Aβ42 Self-Aggregation
Description: The inhibitory activity of tested hybrids against the self-aggregation of Aβ42 was determined in vitro using the thioflavin T (ThT) fluorimetric assay. According to [84], the ThT test is ideal for preliminary screening of inhibitors of Aβ42 self-aggregation, as it enables the quantitative testing of large numbers of compounds within a relatively short time.
The influence of the inhibitory effect of the test compounds toward Aβ42 self-aggregation was determined using the thioflavin T (ThT) fluorescence method with minor modifications. This assay is based on a specific interaction between the fluorescent dye thioflavin T that binds to the β-sheets of assembled amyloid fibrils leading to a significant increase in fluorescence signal. Therefore, the decrease in ThT fluorescence correlates with the ability of the studied compounds to inhibit the formation of amyloid aggregates.
One mg of lyophilized HFIP-pretreated Aβ42 from BACHEM (Bubendorf, Switzerland) was dissolved in DMSO to obtain a stable initial solution ([Aβ42] = 500 μM); then it was aliquoted and stored at −20 °C.
For the measurement of Aβ42 self-aggregation and amyloid fibril inhibition studies by the tested compounds, aliquots of 500 μM Aβ42 stock solution were diluted in 215 mM Na-phosphate buffer pH = 8.0 to a final concentration of 50 μM Aβ42. Then the samples were incubated for 24 h at 37 °C without stirring in the absence (base level of Aβ42 self-aggregation, control) or presence of the test compounds. Myricetin and propidium iodide were used as reference compounds (positive controls). All compounds were used in a concentration of 100 µM. To quantify Aβ42 fibril formation, after incubation, 5 μM ThT in 50 mM glycine-NaOH buffer pH 8.5 was added to the solutions to a final concentration of 4 μM ThT and the fluorescence was measured at 440 nm (excitation) and 485 nm (emission). Analyses were performed with a FLUOStar Optima microplate reader (LabTech, Ortenberg, Germany). The blanks consisted of 215 mM Na-phosphate buffer, pH = 8.0, 20% (v/v) DMSO or test compounds, respectively. Each assay was run in triplicate.

[2] = tested on: porcine liver CES; assay: In vitro CES inhibition (4-NPA substrate); assay type: biochemical; details: compound 20 µM, n.a. = not active
Text: (§1) Assessment of the esterase profile of new potential anti-AD molecules enables the estimation of both the primary pharmacological effects of the tested compounds—their inhibition of AChE and BChE—and their possible unwanted side effect—inhibition of CES, which hydrolyzes numerous ester-containing drugs. For the esterase profile evaluation, human erythrocyte AChE, equine serum BChE, and porcine liver CES were used. These sources of BChE and CES were employed because of their relatively low cost, high sequence identity to human enzymes, and the exploratory character of this work.
(§2) Chromophore absorbances were measured with a FLUOStar Optima microplate reader (BMG Labtech, Ortenberg, Germany). […] Initially, we used a single concentration of 20 µM for all compounds.

[3] = target: T1, human erythrocyte AChE (Homo sapiens, UniProt P22303); assay: biochemical; details: mean ± SEM, n = 3, read-out: Inhibitory activity against AChE, IC50
T1 construct: human erythrocyte AChE, equine serum BChE, and porcine liver CES were used; purchased Sigma-Aldrich; host or cells: human erythrocytes (tissue-derived)
T1 sequence (P22303 32-617 isoform P22303-2 limits assumed): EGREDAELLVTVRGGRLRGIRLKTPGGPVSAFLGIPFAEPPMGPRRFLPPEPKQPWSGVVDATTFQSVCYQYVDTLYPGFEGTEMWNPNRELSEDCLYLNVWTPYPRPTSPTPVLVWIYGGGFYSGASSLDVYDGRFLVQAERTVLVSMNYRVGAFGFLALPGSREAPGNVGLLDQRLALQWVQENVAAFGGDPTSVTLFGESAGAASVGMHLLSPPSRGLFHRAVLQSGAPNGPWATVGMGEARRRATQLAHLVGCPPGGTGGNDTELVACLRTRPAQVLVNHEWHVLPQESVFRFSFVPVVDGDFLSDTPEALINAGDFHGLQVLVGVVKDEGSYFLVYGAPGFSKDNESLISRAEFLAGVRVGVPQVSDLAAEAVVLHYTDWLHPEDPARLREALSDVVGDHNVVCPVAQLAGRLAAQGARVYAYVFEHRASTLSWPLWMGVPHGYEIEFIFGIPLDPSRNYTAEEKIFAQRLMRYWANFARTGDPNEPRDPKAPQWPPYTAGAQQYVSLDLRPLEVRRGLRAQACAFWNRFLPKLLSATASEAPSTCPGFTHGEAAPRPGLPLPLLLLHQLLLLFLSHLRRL
Text: as §1, §2

[4] = target: T2, equine serum BChE (Equus caballus, UniProt P81908); assay: biochemical; details: mean ± SEM, n = 3, read-out: Inhibitory activity against BChE, IC50
T2 construct: human erythrocyte AChE, equine serum BChE, and porcine liver CES were used; purchased Sigma-Aldrich; host or cells: equine serum (tissue-derived)
T2 sequence (P81908 whole entry): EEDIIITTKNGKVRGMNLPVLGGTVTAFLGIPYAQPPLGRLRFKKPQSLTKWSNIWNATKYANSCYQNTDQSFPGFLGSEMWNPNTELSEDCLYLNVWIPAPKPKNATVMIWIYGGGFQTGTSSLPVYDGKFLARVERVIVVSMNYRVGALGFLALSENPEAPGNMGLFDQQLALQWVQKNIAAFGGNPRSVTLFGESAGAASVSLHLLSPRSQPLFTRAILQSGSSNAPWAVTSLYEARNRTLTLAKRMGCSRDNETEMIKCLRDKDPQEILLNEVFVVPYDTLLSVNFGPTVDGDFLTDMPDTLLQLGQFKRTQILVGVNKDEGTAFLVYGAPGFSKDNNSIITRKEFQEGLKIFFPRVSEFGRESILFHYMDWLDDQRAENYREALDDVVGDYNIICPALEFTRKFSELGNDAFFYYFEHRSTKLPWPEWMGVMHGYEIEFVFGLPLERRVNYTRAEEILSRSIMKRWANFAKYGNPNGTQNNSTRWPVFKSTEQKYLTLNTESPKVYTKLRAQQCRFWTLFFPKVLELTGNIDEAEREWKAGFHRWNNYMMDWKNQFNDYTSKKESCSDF
Text: as §1, §2

[5] = target: T3, EeAChE PAS (Electrophorus electricus, UniProt O42275); assay type: binding; details: compound 20 µM; EeAChE 7 µM; propidium iodide 8 µM
T3 construct: The enzyme was electric eel AChE (EeAChE type VI-S, lyophilized powder, Sigma-Aldrich); purchased Sigma-Aldrich type VI-S; host or cells: electric eel (tissue-derived)
T3 sequence (O42275 24-633): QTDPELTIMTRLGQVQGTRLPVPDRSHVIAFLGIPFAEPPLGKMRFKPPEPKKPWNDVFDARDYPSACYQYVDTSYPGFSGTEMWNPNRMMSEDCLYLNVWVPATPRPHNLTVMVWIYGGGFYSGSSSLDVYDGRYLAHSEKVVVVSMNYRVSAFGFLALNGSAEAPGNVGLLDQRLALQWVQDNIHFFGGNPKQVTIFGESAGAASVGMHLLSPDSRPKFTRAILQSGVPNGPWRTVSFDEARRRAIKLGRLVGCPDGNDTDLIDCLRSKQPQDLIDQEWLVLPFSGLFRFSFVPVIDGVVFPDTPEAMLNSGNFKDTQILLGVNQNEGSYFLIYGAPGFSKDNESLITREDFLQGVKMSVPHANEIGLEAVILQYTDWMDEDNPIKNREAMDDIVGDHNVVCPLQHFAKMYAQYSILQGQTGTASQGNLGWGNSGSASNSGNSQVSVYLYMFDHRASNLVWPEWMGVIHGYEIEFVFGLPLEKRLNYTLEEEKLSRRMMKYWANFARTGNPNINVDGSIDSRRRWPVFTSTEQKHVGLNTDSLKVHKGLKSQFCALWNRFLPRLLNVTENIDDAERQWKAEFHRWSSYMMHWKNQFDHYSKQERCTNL
Text: This method is widely used as a screening approach to assess the potential ability of compounds to block AChE-induced β-amyloid aggregation. This is because when the compounds bind to the AChE PAS, they prevent the binding of β-amyloid, thereby inhibiting its aggregation.
The enzyme was electric eel AChE (EeAChE type VI-S, lyophilized powder, Sigma-Aldrich). We selected this source of AChE for consistency with our other reports and because of the purity, specific activity, and lower cost compared to human AChE.
Propidium iodide (final concentration 8 μM) was then added for a further 15 min incubation, and the fluorescence spectrum was taken (530 nm excitation and 600 nm emission) using a FLUOStar Optima microplate reader. The same concentration of propidium iodide in the Tris buffer was used as the blank. Triplicate determinations were recorded and the results were calculated via the following equation:% Displacement = 100 − (IFAChE+ Propidium + inhibitor/IFAChE + Propidium) × 100, where IFAChE + Propidium = fluorescence intensity of propidium iodide associated with AChE in the absence of the test compound (taken as 100%), and IFAChE + Propidium + inhibitor = fluorescence intensity of propidium iodide associated with AChE in the presence of the test compound.

β-amyloid (1–42) (Aβ42), sequence (P05067 672-713 limits assumed): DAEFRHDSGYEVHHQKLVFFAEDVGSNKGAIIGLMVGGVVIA

| Compound | inhibition at 100 µM [1] [%] | Inhibitory activity against CES, inhibition at 20 µM [2] [%] | IC50 [3] [nM] | IC50 [4] [nM] | Propidium Displacement from EeAChE PAS [5] [%] |
| --- | --- | --- | --- | --- | --- |
| O=C(NCCCCCCNc1c2c(nc3ccccc13)CCCC2)c1ccccc1O [5b] | 41.5 ± 2.9 | 19.5 ± 0.9 | 294 ± 8 | 11.9 ± 0.1 | 12.6 ± 1.0 |
| Oc1ccccc1/C=N/CCCCCCCCNc1c2c(nc3ccccc13)CCCC2 [10c] | 80.1 ± 5.6 | 23.0 ± 0.3 | 82.6 ± 4.6 | 15.6 ± 1.2 | 19.8 ± 1.7 |
| O=C(NCCCCCCCCNc1c2c(nc3ccccc13)CCCC2)c1cc(F)c(F)cc1O [7c] | 37.2 ± 2.9 | 8.6 ± 0.7 | 188 ± 15 | 22.6 ± 1.8 | 13.6 ± 1.0 |
| O=C(NCCCCCCNc1c2c(nc3ccccc13)CCCC2)c1cc(F)c(F)cc1O [7b] | 24.1 ± 2.1 | 7.1 ± 1.0 | 249 ± 17 | 31.7 ± 3 | 12.2 ± 0.9 |
